Assay results taken from publication PMC8084100, “Bypassing the requirement for aminoacyl-tRNA by a cyclodipeptide synthase enzyme” (RSC Chemical Biology, 2021).

Assays:
BtCDPS [1] = target: T1, BtCDPS (Caldibacillus thermoamylovorans, UniProt A0A090KS30); test: LC-MS of cyclic dipeptide product; type: biochemical; conditions: 50 mM HEPES pH 7.5, 500 mM NaCl, 5 mM DTT, 1 mM substrate, 20 °C, 24 h
T1 construct: gene yvmC; full length (residues 1-232), codon-optimised synthetic gene, TEV-cleavable His6 tag cut, E. coli BL21(DE3), monomer
T1 sequence (A0A090KS30 1-231): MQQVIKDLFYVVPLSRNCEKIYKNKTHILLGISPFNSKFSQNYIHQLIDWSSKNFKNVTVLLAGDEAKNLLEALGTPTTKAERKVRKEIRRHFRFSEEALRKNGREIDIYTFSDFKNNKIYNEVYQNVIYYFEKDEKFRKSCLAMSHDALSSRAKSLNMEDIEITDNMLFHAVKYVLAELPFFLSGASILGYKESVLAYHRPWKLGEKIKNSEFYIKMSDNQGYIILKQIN

BtCDPS [2] = target: T1, BtCDPS; test: LC-HRMS of cLL product; HPLC of DBE-OH; intact protein MS of acyl-enzyme; type: biochemical; conditions: 50 mM HEPES pH 7.5, 500 mM NaCl, 5 mM DTT, 500 uM substrate, room temperature; covalent (leucyl-enzyme intermediate at S33)

`CC[C@H](C)[C@H](N)C(=O)OCc1cc([N+](=O)[O-])cc([N+](=O)[O-])c1` [Ile-DBE] was tested. Which “LC-MS of cyclic dipeptide product” value (BtCDPS [1]) did it give?
Its value is “Ile-DBE and Met-DBE were also substrates for BtCDPS”.

Which “LC-HRMS of cLL product; HPLC of DBE-OH; intact protein MS of acyl-enzyme” value (BtCDPS [2]) does the source give for `CC(C)C[C@H](N)C(=O)OCc1cc([N+](=O)[O-])cc([N+](=O)[O-])c1` [Leu-DBE] here?
Its value is “a cyclic dipeptide (cLL) is generated by CDPS when Leu-DBE was used as a substrate”.

Which “LC-MS of cyclic dipeptide product” value (BtCDPS [1]) does the source give for `CSCC[C@H](N)C(=O)OCc1cc([N+](=O)[O-])cc([N+](=O)[O-])c1` [Met-DBE] here?
Its value is “Ile-DBE and Met-DBE were also substrates for BtCDPS”.
